Measured values as given in patent US5096715A, “Method and means for treating alcoholism by extinguishing the alcohol-drinking response using a transdermally administered opiate antagonist” (Alko Ltd., priority 1989, dated 1992).
“Also recorded” adds a separate entry of the source.

Legend:
[1] = several combinations of vehicles and enhancers; cited from earlier work
[2] = human
[3] = cited from earlier work
[4] = humans; cited from earlier work

SMILES | rates for naloxone [1] | naloxone present to block alcohol reinforcement at end of session ([2]; 4-7 hrs later, transdermal) | systemic delivery rate ([2]; skin area of 900-1000 cm^2) | time to deliver the entire 30 mg systemically ([2]; including lag time of 18 min) | half-life in the body [3] | severe side-effects [4]
C=CCN1CC[C@]23c4c5ccc(O)c4O[C@H]2C(=O)CC[C@@]3(O)[C@H]1C5 [naloxone] | over 300 μg/cm^2 /hr | Sufficient quantities of naloxone to block alcohol reinforcement would still be present; also recorded: Sufficient amounts of naloxone to block alcohol reinforcement would still be present | about 5 mg/min | half an hour | desirably short half-life | 
O=C1CC[C@@]2(O)[C@H]3Cc4ccc(O)c5c4[C@@]2(CCN3CC2CC2)[C@H]1O5 [naltrexone] |  |  |  |  |  | free of severe side-effects
